Measurements as given in article PMC8878717, “The Oxime Ethers with Heterocyclic, Alicyclic and Aromatic Moiety as Potential Anti-Cancer Agents” (Molecules, 2022).
Where “and” joins values, the source holds several entries; their conditions need not be identical. Identical values can stand only once. Like-named read-outs stand apart in the source and are kept apart here.

How the values were obtained:
HeLa cells = assay: MTT cytotoxicity test on HeLa cells; type: cell-based, human; settings: for cytotoxicity / cell viability of HeLa cells at low concentration: 1–10 μg/mL (1 and 10 μg/mL)
Method: Cytotoxic properties of all compounds were determined by 3-(4,5-dimethylthiazol-2-yl)-2,5-diphenyltetrazolium bromide (MTT) test reflecting cell viability. Cytotoxicity screening of all 27 compounds—2-acetylbenzofuran oxime (6) and its oxime ethers (1–5), as well as: 2-acetylthiophene (7–17), cyclohexanone (18–20), acetophenone (21–23), thiazole (24–25), benzothiazole (26–27) oxime ethers—was performed in vitro on human cervical adenocarcinoma (HeLa) cells as the representatives of cancerous cells.
(§1) 2-Acetylbenzofuran, 2-acetylbenzothiophene, 2-acetylthiophene, 2-acetylthiazole, cyclohexanone and acetophenone derivatives were used for in vitro cytotoxicity assays with cervical adenocarcinoma (HeLa), human dermal fibroblasts (HDF), lung epithelial carcinoma (A549), and intestinal epithelial carcinoma (Caco-2) cell lines. A549, Caco-2, and HeLa cells were obtained from Sigma-Aldrich (Germany), and HDF from Biokom (Poland). All cell lines were cultured according to the manufacturer’s protocol under sterile conditions in the presence of 4.9% CO2 at 37 °C. A549 cells were grown in F-12 medium containing 10% fetal bovine serum (FBS) and 1% penicillin/streptomycin. HDF cells were grown in DMEM (low glucose, with 2 mM glutamine) medium containing 10% fetal bovine serum (FBS) and 1% penicillin/streptomycin. Caco-2 cells were grown in EMEM medium containing 10% fetal bovine serum (FBS), 1% non-essential amino acids (NEAA) and 1% penicillin/streptomycin. HeLa cells were grown in DMEM (low glucose, with 2 mM glutamine) medium containing 10% fetal bovine serum (FBS) and 1% gentamycin. After thawing, cells were cultured until they reached sub-confluent state. The cells were then detached using 0.25% trypsin solution and seeded into 24-well or 96-well plates (3 × 10^3 cells per well) for further experiments. After 24 h growth, the tested compounds were added to the cell cultures in concentrations of 1, 10, 50, 100 and 250 μg mL^−1, respectively, and incubated for the next 24 h or 72 h. The MTT test, based on the ability to reduce 3-(4,5-dimethylthiazol 2-yl)-2,5-diphenyltetrazolium bromide (MTT) by mitochondrial dehydrogenases, was performed in triplicate to assess cell metabolic activity and viability. The plates were then read spectrophotometrically at a wavelength of 570 nm. The dose-dependence curves were charted directly on x-/y-axes, with the drug dosages on the x-axis and the cell viability (percentage of viable cells) on the y-axis.

A549 cells = assay: MTT cytotoxicity test on A549 cells; type: cell-based; settings: Homo sapiens
Method: (§2) Therefore, compounds showing the highest cytotoxicity (8, 9, 18, 22, 24–27) were further tested on normal human dermal fibroblasts (HDF), A549, Caco-2, and HeLa cells to compare their activity after 24 h and 72 h culture (Figure 5 and Figure 6).
as §1

Caco-2 cells = assay: MTT cytotoxicity test on Caco-2 cells; type: cell-based, human; settings: Homo sapiens
Method: as §2, §1

[1] = system: human dermal fibroblasts (HDF); assay: MTT cytotoxicity test on HDF cells; type: cell-based; settings: Homo sapiens, Fibroblast, HDF
Method: as §2, §1

[2] = MTT cytotoxicity test on HDF cells; type: cell-based, human; settings: human, human dermal fibroblasts (HDF); 100 μg/mL, 24 h exposure
Method: as §2, §1

[3] = Homo sapiens, HeLa, 24 h, HeLa, 24 h culture, MTT, read-out: EC50 for HeLa Cells
[4] = A549, 24 h, MTT, read-out: EC50 Value A549 24 h
[5] = A549, 72 h, MTT, read-out: EC50 Value A549 72 h
[6] = Caco-2, 24 h, MTT, read-out: EC50 Value Caco-2 24 h
[7] = Caco-2, 72 h, MTT, read-out: EC50 Value Caco-2 72 h
[8] = Homo sapiens, HeLa, 72 h, HeLa, 72 h, MTT, read-out: EC50 Value HeLa 72 h
[9] = 24 h, MTT, read-out: EC50 Value HDF 24 h
[10] = 72 h, MTT, read-out: EC50 Value HDF 72 h

In the case of `CC(=NOCc1ccc(Cl)cc1Cl)c1cc2ccccc2o1` [Compound 1], the EC50 (HeLa cells; [3]) is reported as > 250 µg/mL and > 750 µM.

With `CC(=NOCc1ccc(C(F)(F)F)cc1)c1cc2ccccc2o1` [Compound 2] the EC50 (HeLa cells; [3]) was > 250 µg/mL and > 750 µM.

In the case of `CC(=NOCc1ccc(Br)cc1)c1cc2ccccc2o1` [Compound 3], the EC50 (HeLa cells; [3]) is reported as > 250 µg/mL and > 730 µM.

With `CC(=NOCc1ccc([N+](=O)[O-])cc1)c1cc2ccccc2o1` [Compound 4] the EC50 (HeLa cells; [3]) was > 250 µg/mL and > 810 µM.

With `CC(=NOCc1c(F)cccc1F)c1cc2ccccc2o1` [Compound 5] the EC50 (HeLa cells; [3]) was > 250 µg/mL and > 830 µM.

For `CC(=NO)c1cc2ccccc2o1` [Compound 6, 2-acetylbenzofuran oxime], the EC50 (HeLa cells; [3]) was > 250 µg/mL and > 1.43 mM.

For `CC(=NOCc1ccc(Cl)cc1Cl)c1cccs1` [Compound 7], the “cytotoxicity / cell viability of HeLa cells at low concentration” value (shortened to “cytotoxicity / cell viability”) (HeLa cells; MTT) was “increased cell viability” and the EC50 (HeLa cells; [3]) was > 250 µg/mL and > 830 µM.

For `CC(=NOCc1ccc(Br)cc1)c1cccs1` [Compound 8], the EC50 (A549 cells; [4]) was 194 µg/mL and 620 µM, the EC50 (A549 cells; [5]) was 228 µg/mL and 740 µM and the EC50 (Caco-2 cells; [6]) was 230 µg/mL and 740 µM. For the same compound, the EC50 (Caco-2 cells; [7]) was 118 µg/mL and 380 µM, the EC50 (HeLa cells; [3]) was 610 µM and the EC50 (HeLa cells; [8]) was 40 µg/mL and 130 µM. The EC50 [1, 9] was 127 µg/mL and 410 µM and the EC50 [1, 10] was 118 µg/mL and 380 µM.

In the case of `CC(=NOCc1ccc([N+](=O)[O-])cc1)c1cccs1` [Compound 9], the EC50 (A549 cells; [4]) is reported as 107 µg/mL and 390 µM, the EC50 (A549 cells; [5]) is reported as 131 µg/mL and 470 µM and the EC50 (Caco-2 cells; [6]) is reported as 78 µg/mL and 280 µM. For the same compound, the EC50 (Caco-2 cells; [7]) was 105 µg/mL and 380 µM, the EC50 (HeLa cells; [3]) was 460 µM and the EC50 (HeLa cells; [8]) was 6.9 µg/mL and 20 µM. The EC50 [1, 9] was 172 µg/mL and 620 µM and the EC50 [1, 10] was 44.7 µg/mL and 160 µM.

With `COc1ccc([N+](=O)[O-])c(CON=C(C)c2cccs2)c1` [Compound 10] the EC50 (HeLa cells; [3]) was > 250 µg/mL and > 820 µM.

In the case of `CC(=NOCCN(C)C)c1cccs1` [Compound 11], the EC50 (HeLa cells; [3]) is reported as > 250 µg/mL and > 1.18 mM.

For `CC(=NOCCN1CCOCC1)c1cccs1` [Compound 12], the “cytotoxicity / cell viability” value (HeLa cells; MTT) was “increased cell viability” and the EC50 (HeLa cells; [3]) was > 250 µg/mL and > 980 µM.

For `C/C(=N\OCCN)c1cccs1` [Compound 13, (E)-1-(thiophen-2-yl)ethanone O-2-aminoethyl oxime], the EC50 (HeLa cells; [3]) was > 250 µg/mL and > 1.36 mM.

With `CCN(CC)CCO/N=C(\C)c1cccs1` [Compound 14, (E)-1-(thiophen-2-yl)ethanone O-2-(diethylamino)ethyl oxime] the EC50 (HeLa cells; [3]) was > 250 µg/mL and > 1.04 mM.

In the case of `C/C(=N\OCCCN)c1cccs1` [Compound 15, (E)-1-(thiophen-2-yl)ethanone O-3-aminopropyl oxime], the EC50 (HeLa cells; [3]) is reported as > 250 µg/mL and > 1.1 mM.

In the case of `CC(=NOCCCN(C)C)c1cccs1` [Compound 16], the “cytotoxicity / cell viability” value (HeLa cells; MTT) is reported as “increased cell viability” and the EC50 (HeLa cells; [3]) is reported as > 250 µg/mL and > 1.1 mM.

With `CC(=NOCC(=O)O)c1cccs1` [Compound 17] the “cytotoxicity / cell viability” value (HeLa cells; MTT) was “increased cell viability” and the EC50 (HeLa cells; [3]) was > 250 µg/mL and > 1.25 mM.

In the case of `O=C(O)CON=C1CCCCC1` [Compound 18, 2-(cyclohexylideneaminoxy)acetic acid], the EC50 (A549 cells; [4]) is reported as 47.8 µg/mL and 280 µM, the EC50 (A549 cells; [5]) is reported as 17.9 µg/mL and 100 µM and the EC50 (A549 cells; A549, 72 h, read-out: EC50 A549) is reported as 90 to 100 µM. For the same compound, the viability at 100 µg/mL (A549 cells; A549, 100 μg/mL, 24 h exposure) was ~20%, the EC50 (Caco-2 cells; [6]) was 44.4 µg/mL and 260 µM and the EC50 (Caco-2 cells; [7]) was 17.5 µg/mL and 100 µM. The EC50 (Caco-2 cells; Caco-2, 72 h, read-out: EC50 Caco-2) was 90 to 100 µM, the viability at 100 µg/mL (Caco-2 cells; Caco-2, 100 μg/mL, 24 h exposure) was ~20% and the “viability of HeLa cells (of control)” value (HeLa cells; 100–250 μg/mL, MTT) was “below 20%”. The EC50 (HeLa cells; [3]) was 32.3 µg/mL and 190 µM, the EC50 (HeLa cells; [8]) was 4.9 µg/mL and 30 µM and the viability at 100 µg/mL (HeLa cells; Homo sapiens, HeLa, 100 μg/mL, 24 h exposure) was ~20%. For the same compound, the viability at 24 h, 100 μg/mL [2] was ~20%, the EC50 [1, 9] was 43.7 µg/mL and 260 µM and the EC50 [1, 10] was 14.7 µg/mL and 90 µM. For the same compound, the EC50 ([1]; 72 h culture, read-out: EC50 HDF) was 90 to 100 µM.

With `CN(C)CCON=C1CCCCC1` [Compound 19] the EC50 (HeLa cells; [3]) was > 250 µg/mL and > 1.36 mM.

In the case of `C1CCC(=NOCCN2CCOCC2)CC1` [Compound 20], the EC50 (HeLa cells; [3]) is reported as > 250 µg/mL and > 1.1 mM.

With `CC(=NOCCN(C)C)c1ccccc1` [Compound 23] the EC50 (HeLa cells; [3]) was 233 µg/mL and 1.13 mM.

With `COc1ccc(CO/N=C(\C)c2nccs2)cc1` [Compound 24, (E)-1-(thiazol-2-yl)ethanone O-4-methoxybenzyl oxime] the EC50 (A549 cells; [4]) was > 250 µg/mL and > 950 µM, the EC50 (A549 cells; [5]) was 35.7 µg/mL and 140 µM and the EC50 (Caco-2 cells; [6]) was > 250 µg/mL and > 950 µM. For the same compound, the EC50 (Caco-2 cells; [7]) was 69.1 µg/mL and 260 µM, the EC50 (HeLa cells; [3]) was 110 µg/mL and 420 µM and the EC50 (HeLa cells; [8]) was 8.7 µg/mL and 30 µM. For the same compound, the EC50 [1, 9] was 35.3 µg/mL and 130 µM and the EC50 [1, 10] was 30.6 µg/mL and 120 µM.

In the case of `C/C(=N\OCc1ccc(Br)cc1)c1nccs1` [Compound 25, (E)-1-(thiazol-2-yl)ethanone O-4-bromobenzyl oxime], the EC50 (A549 cells; [4]) is reported as > 250 µg/mL and > 800 µM, the EC50 (A549 cells; [5]) is reported as 79.9 µg/mL and 260 µM and the EC50 (Caco-2 cells; [6]) is reported as 70.8 µg/mL and 230 µM. The EC50 (Caco-2 cells; [7]) was 50.5 µg/mL and 160 µM, the EC50 (HeLa cells; [3]) was 130 µg/mL and 420 µM and the EC50 (HeLa cells; [8]) was 47.3 µg/mL and 150 µM. For the same compound, the melting point was 67 to 70 °C, the EC50 [1, 9] was 37.9 µg/mL and 120 µM and the EC50 [1, 10] was 25.7 µg/mL and 80 µM.

In the case of `CC(=NOCc1ccc(Cl)cc1Cl)c1cc2ccccc2s1` [Compound 26, (E)-1-(benzothiophene-2-yl)ethanone O-2,4-dichlorobenzyl oxime], the EC50 (A549 cells; [4]) is reported as 199 µg/mL and 570 µM, the EC50 (A549 cells; [5]) is reported as 177 µg/mL and 510 µM and the EC50 (Caco-2 cells; [6]) is reported as > 250 µg/mL and > 710 µM. For the same compound, the EC50 (Caco-2 cells; [7]) was 50.1 µg/mL and 140 µM, the EC50 (HeLa cells; [3]) was 121 µg/mL and 350 µM and the EC50 (HeLa cells; [8]) was 8.18 µg/mL and 20 µM. The melting point was 113 to 117 °C, the EC50 [1, 9] was 135 µg/mL and 380 µM and the EC50 [1, 10] was 25.7 µg/mL and 70 µM.
